# Reference: patent US9763445B2, “Safened herbicidal compositions comprising a pyridine carboxylic acid herbicide” (Dow AgroSciences, LLC, priority 2014, dated 2017)
# Columns and labels:
# spring wheat (TRZAS) = assay: Postemergence greenhouse trial, % visual injury on spring wheat; assay type: in vivo, Triticum aestivum; settings: TRZAS, CQC-m 0 g/ha
# Method in brief: (§1)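 Postemergence greenhouse spray (187 L/ha, 1.5% v/v Agri-dex in water, acetone/DMSO stocks) on plants at second–third true leaf stage, ~23/22 °C, 14 h photoperiod; herbicides in g ae/ha, safener cloquintocet-mexyl in g ai/ha. Visual injury 0–100% versus solvent-blank controls after 20–22 d; Colby's equation gave expected mixture effects.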
# pigweed (AMARE) = assay: Postemergence greenhouse trial, % visual injury on pigweed; assay type: in vivo, Amaranthus retroflexus; settings: AMARE, CQC-m 0 g/ha
# Method in brief: as §1
# winter rape (BRSNW) = assay: Postemergence greenhouse trial, % visual injury on winter rape; assay type: in vivo, Brassica napus; settings: BRSNW, CQC-m 0 g/ha
# Method in brief: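 Plants at second or third true leaf stage, greenhouse-grown (14 h photoperiod, ~23/22° C.), sprayed postemergence with compounds alone or with safener cloquintocet-mexyl in 1.5% v/v Agri-dex crop oil at 187 L/ha. Visual injury scored 0–100% versus solvent-blank controls after 20-22 d; expected mixture effects by Colby's equation.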
# kochia (KCHSC) = assay: Postemergence greenhouse trial, % visual injury on kochia; assay type: in vivo, Kochia scoparia; settings: KCHSC, CQC-m 0 g/ha
# Method in brief: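 Herbicide rates g ae/ha, safener (cloquintocet-mexyl) rates g ai/ha; spray carrier 1.5% v/v crop oil concentrate, 187 L/ha, 2nd–3rd leaf stage. Rating: visual % injury at 20-22 d.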
# Russian thistle (SASKR) = assay: Postemergence greenhouse trial, % visual injury on Russian thistle; assay type: in vivo, Salsola kali; settings: SASKR, CQC-m 0 g/ha
smiles,measurement,setting,value
Nc1cc(-c2ccc3cc[nH]c3c2F)nc(C(=O)O)c1Cl [compound 15],"% visual injury, Ob",spring wheat (TRZAS); compound 4.375 g/ha,0%
same,"% visual injury, Ob",spring wheat (TRZAS); compound 8.75 g/ha,10%
same,"% visual injury, Ob",spring wheat (TRZAS); compound 17.5 g/ha,15%
same,"% visual injury, Ob",spring wheat (TRZAS); compound 35 g/ha,20%
same,"% visual injury, Ob",spring wheat (TRZAS); compound 70 g/ha,25%
same,"% visual injury, Ob",pigweed (AMARE); compound 4.375 g/ha,70%
same,"% visual injury, Ob",pigweed (AMARE); compound 8.75 g/ha,100%
same,"% visual injury, Ob",pigweed (AMARE); compound 17.5 g/ha,100%
same,"% visual injury, Ob",pigweed (AMARE); compound 35 g/ha,100%
same,"% visual injury, Ob",winter rape (BRSNW); compound 4.375 g/ha,40%
same,"% visual injury, Ob",winter rape (BRSNW); compound 8.75 g/ha,40%
same,"% visual injury, Ob",winter rape (BRSNW); compound 17.5 g/ha,50%
same,"% visual injury, Ob",winter rape (BRSNW); compound 35 g/ha,70%
same,"% visual injury, Ob",winter rape (BRSNW); compound 70 g/ha,60%
same,"% visual injury, Ob",kochia (KCHSC); compound 4.375 g/ha,10%
same,"% visual injury, Ob",kochia (KCHSC); compound 8.75 g/ha,10%
same,"% visual injury, Ob",kochia (KCHSC); compound 17.5 g/ha,50%
same,"% visual injury, Ob",kochia (KCHSC); compound 35 g/ha,60%
same,"% visual injury, Ob",kochia (KCHSC); compound 70 g/ha,75%
same,"% visual injury, Ob",Russian thistle (SASKR); compound 4.375 g/ha,10%
same,"% visual injury, Ob",Russian thistle (SASKR); compound 8.75 g/ha,10%
same,"% visual injury, Ob",Russian thistle (SASKR); compound 17.5 g/ha,10%
same,"% visual injury, Ob",Russian thistle (SASKR); compound 35 g/ha,60%
same,"% visual injury, Ob",Russian thistle (SASKR); compound 70 g/ha,70%
